From PMC1976805, “Preclinical pharmacokinetics of benznidazole” (British Journal of Cancer, 1984)
Where “and” joins values, the source holds several entries; their conditions need not be identical. Equal entries are not always repeated. Where two headings read alike, the source gives them in different places.

Key:
[1] = test system: human plasma; conditions: cited from earlier work
[2] = test system: KHT tumour; conditions: mice, cited from earlier work
[3] = Whole plasma pharmacokinetics of benznidazole in mice (HPLC); type: in vivo, mouse; conditions: for i.p. bioavailability (from AUC0-∞): 65 mg kg-1 i.p.; for half-life / Tmax: mouse; for Tmax: read-out: time of peak plasma concentration (converted)
Excerpt: (§1) Br. J. Cancer (1984), 50, 291-303 Preclinical pharmacokinetics of benznidazole P. Workman', R.A.S. White2, M.I. Walton', L.N. Owen2* & P.R. Twentyman' 1MRC Clinical Oncology and Radiotherapeutics Unit, MRC Centre, Hills Road, Cambridge CB2 2QH, and 2Department of Clinical Veterinary Medicine, University of Cambridge, Madingley Road, Cambridge CB3 OES, UK. […] We have investigated the detailed pharmacokinetics of benznidazole in mice, dogs and sheep to provide a data base for the estimation of doses required for chemosensitization in man. Pharmacokinetic behaviour was linear except at high doses in mice. Absorption was fairly rapid and bioavailability was complete following both i.p. administration in mice and oral administration in dogs. Elimination t4 values were longer than for MISO, being 90 min in mice, 4-5 h in sheep and 9-11 h in dogs. At doses giving linear kinetics, peak whole plasma concentrations per administered mgkg-1 were 0.75 jigml-1 for the i.p. route in mice and 1.8jugmlP' for the oral route in dogs. Though between 39 and 59% of plasma benznidazole was bound to protein, tissue penetration was generally good. Tissue/whole plasma ratios ranged from 59-99% for transplantable mouse tumours and from 14-70% for spontaneous dog neoplasms. Nervous tissue penetration was similar to that in tumours: brain/whole plasma ratios averaged between 61 and 76% in mice and 42% in dogs, while peripheral nerve/whole plasma ratios in dogs averaged 74%. Mean liver/whole plasma ratios were 42% and 71% in BALB/c and C3H/He mouse strains respectively. Only -5% of the administered dose was excreted unchanged in the urine, indicating the likelihood of extensive metabolism. […] Enhancement of CCNU response is likely to require circulating benznidazole concentrations of 10-30 pgml-1 and we predict that these will be obtained with oral doses of 6-20 mgkg- 1 in man. […] This enhancement, or chemosensitization, is usually greater than that seen in dose-limiting normal tissues, resulting in an improved therapeutic index. Because of the relatively high doses of MISO usually required for chemosensitization in mice (see above refs), and also because of its neurotoxicity in man (Dische et al., 1977), we have been interested in finding an improved chemosensitizer. […] The lipophilic ana- logue benznidazole (N-benzyl-(2-nitroimidazolyl) acetamide, Ro 07-1051; Radanil; Roche), the structure of which is shown in Figure 1, was selected for detailed study because of its ability to *Present address: Animal Health Trust, Small Animals Centre, Lanwades Park, Kennett, Newmarket, Suffolk CB8 7PN, UK. Correspondence: P. Workman. […] These findings have been confirmed independently by Siemann et al. (1983). Although benznidazole is used quite widely in South America to treat patients with the trypanosomal infection Chagas' disease or with mucotaneous Leishmaniasis (Barclay et al., 1978; Cerisola et al., 1978; Coura et al., 1978; Fava et al., 1978), apart from our preliminary studies (White et al., 1982) the only published data on its pharmaco- kinetics are for human plasma concentrations measured by polarography (Raaflub & Ziegler, 1979; Raaflub, 1980). Here we describe the pharmacokinetics of benznidazole in the mouse, sheep and dog, as determined by high-performance liquid chromatography (HPLC). […] The Macmillan Press Ltd., 1984 292 P. WORKMAN et al. particularly on plasma and tumour concentrations, have been used as a basis for the estimation of the benznidazole doses required in a Phase I trial of benznidazole plus CCNU, at present ongoing in our Unit. Materials and methods Animals and tumours Adult inbred male BALB/c mice were obtained from OLAC (Southern) Ltd. (Bicester, UK) and adult inbred C3H/He mice of both sexes from OLAC and our own breeding colony. Mice were housed in plastic cages on sawdust bedding made from soft white woods, and allowed laboratory chow and water ad lib. They were used at 20-35 g body wt.

[4] = test system: plasma proteins; assay: Plasma protein binding in sheep (plasma ultrafiltrate); type: in vivo
Excerpt: Br. J. Cancer (1984), 50, 291-303 Preclinical pharmacokinetics of benznidazole P. Workman', R.A.S. White2, M.I. Walton', L.N. Owen2* & P.R. Twentyman' 1MRC Clinical Oncology and Radiotherapeutics Unit, MRC Centre, Hills Road, Cambridge CB2 2QH, and 2Department of Clinical Veterinary Medicine, University of Cambridge, Madingley Road, Cambridge CB3 OES, UK. […] We have investigated the detailed pharmacokinetics of benznidazole in mice, dogs and sheep to provide a data base for the estimation of doses required for chemosensitization in man. Pharmacokinetic behaviour was linear except at high doses in mice. Absorption was fairly rapid and bioavailability was complete following both i.p. administration in mice and oral administration in dogs. […] Although benznidazole is used quite widely in South America to treat patients with the trypanosomal infection Chagas' disease or with mucotaneous Leishmaniasis (Barclay et al., 1978; Cerisola et al., 1978; Coura et al., 1978; Fava et al., 1978), apart from our preliminary studies (White et al., 1982) the only published data on its pharmaco- kinetics are for human plasma concentrations measured by polarography (Raaflub & Ziegler, 1979; Raaflub, 1980). Here we describe the pharmacokinetics of benznidazole in the mouse, sheep and dog, as determined by high-performance liquid chromatography (HPLC). […]

[5] = Plasma pharmacokinetics in man (literature); type: in vivo; conditions: oral doses of 6-20 mg kg-1, extrapolated from dog and literature human data
[6] = Penetration into mouse liver; type: in vivo; conditions: for liver/whole plasma ratio, overall mean / liver concentration / whole plasma concentration / Kp at 0.5 h / Kp at 3 h / Kp at 6 h / Kp: 78 mg kg-1 i.p.; for liver/whole plasma ratio, overall mean / Kp: 0.5-6 h; for Kp at 0.5 h / Kp at 3 h / Kp at 6 h / Kp: mouse, ip; for Kp at 0.5 h / Kp at 3 h / Kp at 6 h: liver / whole plasma, read-out: liver/whole plasma ratio; for Kp: liver, read-out: liver/whole plasma ratio, overall mean
Excerpt: as §1

[7] = benznidazole 78 mg kg-1 i.p., ref Twentyman & Workman, 1983, Siemann et al.

In the case of O=C(Cn1ccnc1[N+](=O)[O-])NCc1ccccc1 [benznidazole, N-benzyl-(2-nitroimidazolyl) acetamide], the “binding to plasma proteins” value ([1]; ref Raaflub & Ziegler, 1979) is given as 44%, the “binding to plasma proteins” value ([1]; ref Workman & Brown, 1981) is given as 58% and the “enhancement factor of CCNU response in normal tissues” value [2, 7] is given as 1.2-1.4. For the same compound, the “enhancement factor of tumour response to CCNU” value [2, 7] was 1.5-2, the “i.p. dose giving clear enhancement of KHT tumour response to CCNU (at least as low as)” value ([2]; ref Workman & Twentyman, 1982) was at most 13 mg/kg and the “peak whole plasma concentration (+2 s.e.)” value ([3]; BALB/c mice, 26 mg kg-1 i.p.) was 18.0+3.7 µg ml-1. For the same compound, the “i.p. bioavailability (from AUC0-∞)” value ([3]; BALB/c mice, 50% polyethylene glycol/saline vehicle) was 87%, the “i.p. bioavailability (from AUC0-∞)” value ([3]; BALB/c mice, dimethyl sulphoxide vehicle) was 113% and the “peak whole plasma concentration (+2 s.e.)” value ([3]; BALB/c mice, 78 mg kg-1 i.p.) was 36.0+2.5 µg ml-1. The “peak whole plasma concentration (+2 s.e.)” value ([3]; BALB/c mice, 650 mg kg-1 i.p.) was 105+15 µg ml-1, the “blood/whole plasma concentration ratio, overall mean (s.e., n=16)” value ([3]; BALB/c mice, 650 mg kg-1 i.p. in arachis oil, 45-135 min) was 116+4% and the “whole plasma concentration remaining at 24 h” value ([3]; BALB/c mice, 650 mg kg-1 i.p., experiment of Figure 3) was 15 µg/mL. For the same compound, the half-life ([3]; male, plasma, ip, BALB/c mice, 26 mg kg-1 i.p., suspension in 50% polyethylene glycol, read-out: elimination half-life (95% confidence limits)) was 1.55 h, the half-life ([3]; male, plasma, ip, BALB/c mice, 68 mg kg-1 (so in the source) i.p., suspension in 50% polyethylene glycol, read-out: elimination half-life (95% confidence limits)) was 1.6 h and the Tmax ([3]; male, plasma, ip, BALB/c mice, 650 mg kg-1 i.p.) was 1 h. The Tmax ([3]; male, plasma, ip, BALB/c mice, 26 and 78 mg kg-1 i.p.) was 0.25 to 0.5 h, the half-life ([3]; male, plasma, iv, BALB/c mice, 32.5 mg kg-1 i.v. in dimethyl sulphoxide, read-out: elimination half-life (95% confidence limits)) was 1.98 h and the half-life ([3]; male, plasma, iv, BALB/c mice, 65 mg kg-1 i.v. in dimethyl sulphoxide, read-out: elimination half-life (95% confidence limits)) was 1.95 h. For the same compound, the “peak whole plasma concentration that would be produced” value ([3]; mice, 13 mg kg-1 i.p.) was “about 10 µg ml-1”, the “whole plasma concentration (dose-peak concentration curve, Figure 4)” value ([3]; mice, 26 mg kg-1 i.p.) was 20 µg/mL and the whole plasma concentration ([3]; mice, 78 mg kg-1 i.p., discussion summary) was 30 µg/mL. For the same compound, the “whole plasma concentration (dose-peak concentration curve, Figure 4)” value ([3]; mice, 650 mg kg-1 i.p.) was 90 µg/mL, the “whole plasma concentration remaining at 24 h” value ([3]; mice, 650 mg kg-1 i.p., some other experiments (undetectable)) was under 0.2 µg/mL and the “peak whole plasma concentration per administered mg kg-1” value ([3]; mice, i.p. route, doses giving linear kinetics) was 0.75 micrograms ml-1. For the same compound, the half-life ([3]; plasma, mice, summary value, read-out: elimination t1/2) was 1.5 h, the “metabolites detectable by HPLC with u.v. detection at 313 nm” value ([3]; plasma, urine and tissues of all species studied) was “no evidence of metabolites” and the fraction unbound ([4]; male, Clun Forest/Border Leicester cross, plasma, iv, sheep 2, 4 mg kg-1 i.v., read-out: protein binding (s.e., n=6) (converted)) was 0.58. The “binding to plasma proteins” value ([4]; sheep, discussion summary) was 42%, the “predicted circulating (peak whole plasma) concentrations” value [5] was 10-30 micrograms ml-1 and the “liver/whole plasma ratio, overall mean” value ([6]; BALB/c) was 41.7%. For the same compound, the liver concentration ([6]; BALB/c, 0.5 h) was 20.8 µg/g, the whole plasma concentration ([6]; BALB/c, 0.5 h) was 45.3 µg/mL and the liver concentration ([6]; BALB/c, 3.0 h) was 10.3 µg/g. It also gave a whole plasma concentration ([6]; BALB/c, 3.0 h) of 29.8 µg/mL, a liver concentration ([6]; BALB/c, 6.0 h) of 8.2 µg/g and a whole plasma concentration ([6]; BALB/c, 6.0 h) of 12.2 µg/mL. For the same compound, the “liver/whole plasma ratio, overall mean” value ([6]; C3H/He, n=29) was 70.6% and 71 + 8%, the liver concentration ([6]; C3H/He, 0.5 h) was 25.2 µg/g and the whole plasma concentration ([6]; C3H/He, 0.5 h) was 33.9 µg/mL. It also gave a liver concentration ([6]; C3H/He, 3.0 h) of 17.3 µg/g, a whole plasma concentration ([6]; C3H/He, 3.0 h) of 34.1 µg/mL and a liver concentration ([6]; C3H/He, 6.0 h) of 17.8 µg/g. It also gave a whole plasma concentration ([6]; C3H/He, 6.0 h) of 21.1 µg/mL, a Kp at 0.5 h ([6]; both sexes, C3H/He, 78 mg kg-1, C3H/He, 0.5 h) of 0.758 and a Kp at 3 h ([6]; both sexes, C3H/He, 78 mg kg-1, C3H/He, 3.0 h) of 0.533. The Kp at 6 h ([6]; both sexes, C3H/He, 78 mg kg-1, C3H/He, 6.0 h) was 0.843, the Kp ([6]; both sexes, C3H/He, 78 mg kg-1, C3H/He, n=29) was 0.71 and the Kp at 0.5 h ([6]; male, BALB/c, 78 mg kg-1, BALB/c, 0.5 h) was 0.466. It also gave a Kp at 3 h ([6]; male, BALB/c, 78 mg kg-1, BALB/c, 3.0 h) of 0.348, a Kp at 6 h ([6]; male, BALB/c, 78 mg kg-1, BALB/c, 6.0 h) of 0.439 and a Kp ([6]; male, BALB/c, 78 mg kg-1, BALB/c) of 0.42. The “peak liver concentration that would be produced” value ([6]; mice, 13 mg kg-1 i.p.) was about 7 µg/g and the liver concentration ([6]; mice, discussion summary) was 21 µg/g.
